From article PMC5831858, “Pharmacological characterisation of CR6086, a potent prostaglandin E2 receptor 4 antagonist, as a new potential disease-modifying anti-rheumatic drug” (Arthritis Research & Therapy, 2018)

What was measured:
V1a = V1a (Homo sapiens, UniProt P37288); assay: V1a receptor binding; details: [^3H]AVP, Human recombinant CHO cells, read-out: CR6086 Activity at 10µM
EP3 = target: T1, EP3 (Homo sapiens, UniProt P43115); assay: Eicosanoid receptor EP3 binding; details: [^3H]PGE2, HEK-293 cells, read-out: CR6086 Activity at 10µM
T1 construct: host or cells: HEK-293 cells

[1] = target: Norepinephrine transporter (Homo sapiens, UniProt P23975); assay: Norepinephrine transporter binding; details: [^3H]nisoxetine, Human recombinant CHO cells, read-out: CR6086 Activity at 10µM
EP2 = target: T2, EP2 (Homo sapiens, UniProt P43116); assay: Eicosanoid receptor EP2 binding; details: [^3H]PGE2, HEK-293 cells, read-out: CR6086 Activity at 10µM
T2 construct: host or cells: HEK-293 cells

CysLT2 (Cys-LTs) = CysLT2 (Cys-LTs) (Homo sapiens, UniProt Q9NS75); assay: Eicosanoid receptor CysLT2 binding; details: [^3H]LTD4, HEK-293 cells, read-out: CR6086 Activity at 10µM
B2 = B2 (Homo sapiens, UniProt P30411); assay: B2 receptor binding; details: [^3H]bradykinin, Human recombinant CHO cells, read-out: CR6086 Activity at 10µM

Measured: inhibition at 10 µM

T1 sequence (P43115 whole entry): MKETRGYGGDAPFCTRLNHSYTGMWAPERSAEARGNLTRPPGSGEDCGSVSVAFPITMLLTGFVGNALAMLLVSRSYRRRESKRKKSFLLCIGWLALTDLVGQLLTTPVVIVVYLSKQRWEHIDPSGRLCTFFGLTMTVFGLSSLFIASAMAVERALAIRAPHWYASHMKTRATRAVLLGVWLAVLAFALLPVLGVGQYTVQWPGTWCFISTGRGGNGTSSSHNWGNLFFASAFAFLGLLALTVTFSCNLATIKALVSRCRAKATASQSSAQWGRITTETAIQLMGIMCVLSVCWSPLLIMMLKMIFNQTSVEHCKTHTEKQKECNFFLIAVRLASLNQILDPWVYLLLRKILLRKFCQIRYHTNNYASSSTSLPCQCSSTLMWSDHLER
T2 sequence (P43116 whole entry): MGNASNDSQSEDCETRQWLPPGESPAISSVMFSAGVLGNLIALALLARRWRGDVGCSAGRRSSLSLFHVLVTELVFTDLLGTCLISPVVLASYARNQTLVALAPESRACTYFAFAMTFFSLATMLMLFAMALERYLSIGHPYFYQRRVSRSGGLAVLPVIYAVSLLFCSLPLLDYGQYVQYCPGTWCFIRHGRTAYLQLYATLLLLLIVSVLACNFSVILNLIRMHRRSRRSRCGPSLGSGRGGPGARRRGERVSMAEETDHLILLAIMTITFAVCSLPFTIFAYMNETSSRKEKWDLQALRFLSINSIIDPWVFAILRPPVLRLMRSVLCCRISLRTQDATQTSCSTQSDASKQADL
Sequence of CysLT2 (Cys-LTs) (Q9NS75 whole entry, species assumed): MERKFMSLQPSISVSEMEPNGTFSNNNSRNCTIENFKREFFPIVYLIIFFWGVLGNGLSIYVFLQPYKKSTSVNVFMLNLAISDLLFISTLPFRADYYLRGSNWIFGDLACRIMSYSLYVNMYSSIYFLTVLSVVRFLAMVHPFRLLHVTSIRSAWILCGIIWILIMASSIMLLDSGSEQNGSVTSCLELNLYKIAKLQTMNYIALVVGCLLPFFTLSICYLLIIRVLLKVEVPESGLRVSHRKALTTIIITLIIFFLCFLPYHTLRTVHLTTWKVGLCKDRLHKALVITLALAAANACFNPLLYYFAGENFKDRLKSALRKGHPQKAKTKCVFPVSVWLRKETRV
Sequence of B2 (P30411 whole entry): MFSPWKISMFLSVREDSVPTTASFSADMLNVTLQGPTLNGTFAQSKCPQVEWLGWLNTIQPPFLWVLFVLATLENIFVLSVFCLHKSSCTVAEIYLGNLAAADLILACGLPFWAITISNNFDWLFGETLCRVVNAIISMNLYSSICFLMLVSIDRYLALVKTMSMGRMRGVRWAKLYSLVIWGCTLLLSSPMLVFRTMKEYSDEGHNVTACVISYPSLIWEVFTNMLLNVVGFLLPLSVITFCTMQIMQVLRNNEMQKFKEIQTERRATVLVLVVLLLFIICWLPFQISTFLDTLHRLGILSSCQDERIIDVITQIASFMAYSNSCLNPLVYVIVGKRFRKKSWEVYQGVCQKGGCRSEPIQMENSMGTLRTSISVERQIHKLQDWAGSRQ
Sequence of Norepinephrine transporter (P23975 whole entry): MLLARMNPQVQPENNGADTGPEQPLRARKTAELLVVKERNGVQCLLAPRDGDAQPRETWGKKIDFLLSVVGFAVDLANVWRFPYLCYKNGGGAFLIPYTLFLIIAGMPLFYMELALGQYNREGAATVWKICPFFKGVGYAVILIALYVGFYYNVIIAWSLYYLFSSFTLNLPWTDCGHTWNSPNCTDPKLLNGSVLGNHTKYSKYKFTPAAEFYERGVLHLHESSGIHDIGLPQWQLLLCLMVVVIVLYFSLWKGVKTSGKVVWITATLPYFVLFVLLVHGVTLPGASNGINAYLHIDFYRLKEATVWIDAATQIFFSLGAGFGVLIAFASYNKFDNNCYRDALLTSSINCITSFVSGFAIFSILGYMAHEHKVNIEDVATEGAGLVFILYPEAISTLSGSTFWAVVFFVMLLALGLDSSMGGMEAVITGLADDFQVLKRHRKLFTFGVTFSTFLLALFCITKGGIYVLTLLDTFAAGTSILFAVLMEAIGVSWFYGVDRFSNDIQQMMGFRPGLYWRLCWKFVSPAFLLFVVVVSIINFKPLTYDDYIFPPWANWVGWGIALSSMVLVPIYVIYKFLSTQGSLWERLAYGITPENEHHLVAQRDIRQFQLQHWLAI
Sequence of V1a (P37288 whole entry): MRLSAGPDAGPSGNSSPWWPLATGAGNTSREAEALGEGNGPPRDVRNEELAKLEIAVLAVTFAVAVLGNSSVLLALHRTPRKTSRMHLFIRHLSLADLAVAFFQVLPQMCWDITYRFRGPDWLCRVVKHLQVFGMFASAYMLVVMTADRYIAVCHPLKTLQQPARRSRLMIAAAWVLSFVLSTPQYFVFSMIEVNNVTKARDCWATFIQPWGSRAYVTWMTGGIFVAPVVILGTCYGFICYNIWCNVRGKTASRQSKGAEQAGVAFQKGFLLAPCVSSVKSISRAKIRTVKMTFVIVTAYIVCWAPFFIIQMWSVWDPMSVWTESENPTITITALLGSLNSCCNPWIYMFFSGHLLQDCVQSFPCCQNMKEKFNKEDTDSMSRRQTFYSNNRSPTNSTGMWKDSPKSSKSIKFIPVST

O=C([O-])c1ccc(C2(NC(=O)[C@H]3CC4(CCN3Cc3ccc(C(F)(F)F)cc3)CC4)CC2)cc1.[Na+] [CR6086, Sodium (R)-4-(1-(6-(4-(trifluoromethyl)benzyl)-6-azaspiro[2.5]octane-5-carboxamido)cyclopropyl)benzoate]
< 20%: all assays above
